How the values were obtained:
[1] = system: cTnI-G203S cardiac myocytes; test: Calcium transients in Fura-2 loaded myocytes; type: cell-based, mouse; details: in vitro 1 μM peptide
Experimental: (§1) The whole-cell configuration of the patch-clamp technique was used to measure changes in ICa-L currents ([13]), and stimulate calcium transients in intact ventricular myocytes. Detailed methods are provided in SI Appendix.
(§2) Supporting Materials and Methods
(§3) Isolation of ventricular myocytes
(§4) Myocytes were isolated from wt and cTnI-G203S mice. Animals were anesthetized with pentobarbitone sodium (240 mg/kg) via intraperitoneal injection prior to excision of the heart. Cells were isolated as previously described (1-3). Mouse hearts were excised, cannulated onto a Langendorff apparatus via the aorta, and perfused with Krebs-Henseleit Buffer (KHB) containing […]
(§5) O2/CO2 at 37°C) for 4 min at 37°C. […]
(§6) The whole-cell configuration of the patch-clamp technique was used to measure changes in ICa-L currents (4), and stimulate calcium transients in intact ventricular myocytes. […] Currents were measured in extracellular modified Tyrode’s solution containing (in mM): NaCl 140, CsCl 5.4, CaCl2 2.5, MgCl2 0.5, HEPES 5.5 and glucose 11 (pH adjusted to 7.6 with NaOH). Macroscopic currents were recorded using an Axopatch 200B voltage-clamp amplifier (Molecular Devices) with a Digidata 1440A interface and pClamp10.5 software (Molecular Devices). […] The time course of changes in Ca2+ conductance were monitored by applying a 100 ms test pulse to 10 mV once every 10 seconds. […]

[2] = biological target: T1, cardiac L-type calcium channel (ICa-L) (Mus musculus, UniProt Q01815); test: Whole-cell patch-clamp of ICa-L currents in ventricular myocytes; type: cell-based; details: cTnI-G203S myocytes, in vitro 1 μM peptide
T1 construct: measure changes in ICa-L currents ([13]), and stimulate calcium transients in intact ventricular myocytes; endogenous in cells; host or cells: ventricular myocytes isolated from wt (human cTnI transgene) and cTnI-G203S mice
Experimental: as §1, §2, §3, §4, §5, §6

[3] = system: cardiac L-type calcium channel (ICa-L); design: method as in PMID 19166857, PMID 24969422, PMID 24958783; details: wt myocytes; cited from earlier work

Q: What does the source list for QQLEEDLKGYLDWITQAE [AID-TAT]?
A: cellular calcium handling (calcium transients, Fura-2) [1]: no significant alteration; ICa-L current density [2]: no significant alteration; ICa-L inactivation rate (tau) ([2]; 37 °C): restored ICa-L inactivation rate to wt levels; inactivation rate of the cardiac ICa-L [3]: slows the inactivation rate
